How the values were obtained:
[1] = Acute toxicity test, single oral administration; type: in vivo; conditions: in vivo, mouse, Litchfield-Wilcoxon method, 95% confidence interval 3.26-4.78 g/kg (Example 4)
Procedure: (§1) Moreover, as a result of an acute toxicity test using mouse to evaluate the general toxicity of the compound according to the present invention, when the compound is single administered via oral route, the LD50 value of the respective compound is 3.5 g/kg or more. Therefore, the compound of the present invention is determined as being very safe.
(§2) The acute toxicity test was carried out to quantitatively and qualitatively examine the toxicity which occurs within a short period of time after a single administration of the test compound to the experimental animal.
(§3) In this experiment, the acute toxicity test was conducted using 5-6 weeks ICR male mouse obtained from Korea Experimental Animal Center. From 6 p.m., the day before administration of the test compound, to 9 a.m. the day on which the test compound is administered, mouse was fasted. The test compound was ground and suspended in corn oil and then administered in the dose of 1000 to 6000 mg/kg to the experimental animal. For each dose, 6 animals were used. The test compound was prepared and used on that day, and was single administered via oral route by means of a needle. After the compound of Example 4, as typical example of the compound according to the present invention was administered, the survived and died animals were observed during 14 days.

ICR male mouse = test: Acute toxicity test, single oral administration; type: in vivo; conditions: 14 days
Procedure: as §1, §2, §3

hepatocyte necrosis [2] = test: Effect of inhibiting hepatic disorder induced by carbon tetrachloride: hepatocyte necrosis; type: in vivo, male ICR mice; conditions: CCl4 model, 50 mg/kg per day oral, 3 days
Procedure: (§4) In the present invention, the inhibiting effect of the compound of formula (I) on hepatic disorder, induced by carbon tetrachloride and acetaminophene, was determined after oral administration of the novel compound according to the present invention to mouse as the experimental animal for 3 days. The degree of liver damage in respective experimental animal was determined by measuring ALT and LDH levels in blood [see, Biol. Pharm. Bull., 20, 4, 381-385, 1997; Toxicology and Applied Pharmacology, 95, 1-11, 1988], and further by removing the liver, staining (×100) the liver with hematoxylin and eosin and then observing with microscope to examine the degree of hepatocyte necrosis.
The liver protective effect of the compound according to the present invention was examined according to the known method [see, Philippe letteron et al., Biochemical Pharmacology, 39, 12, 2027-2034, 1990] as specifically described below.
The compound according to the present invention was suspended in corn oil and the resulting suspension was administered in an amount of 1.0 ml/kg. Each group was composed of 3 to 10 male ICR mice (5-6 weeks) and the test compound was orally administered for 3 days in the dose of 50 mg/kg per day. After the test compound was administered, carbon tetrachloride was intraperitoneally injected in an amount of 100 μl/kg. In this experiment, silymarin was used as the comparative compound. After 24 hours from administration of carbon tetrachloride, blood was taken from the test animal by cardiac perforation and ALT value in serum was determined. The result obtained is described in the following Table 2 (in which ALT value is represented by mean±SE). The ALT unit in serum was determined by centrifuging blood to separate serum as the supernatant, and then the separated serum were subjected to Reitman-Frankel method by means of a commercially available kit (BC101-O,P, Youngdong Pharm.). That is, DL-alanine and α-ketoglutarate were used as the substrate solution to which 2,4-dinitrophenylhydrazine was added to produce hydrazone. Then, sodium hydroxide was added to hydrazone to colorize and then the absorbance was measured at 505 nm.
(§5) In addition, liver was removed from the test animals, stained (×100) with hematoxylin and eosin and then observed by microscope. The degree of hepatocyte necrosis was evaluated according to the following 5 grades: 0 no lesion, 1 mild lesion, 2 moderate lesion, 3 severe lesion and 4 diffused lesion.

[3] = tested on: serum ALT (alanine aminotransferase); test: Effect of inhibiting hepatic disorder induced by acetaminophen (APAP): serum ALT; type: in vivo, male ICR mice; conditions: APAP 0.5 g/kg oral, compound 50 mg/kg per day oral, 3 days
Source text: In addition, the liver protective effects of the compound of the present invention can also be confirmed by acetaminophen model [see, Wang et al., Toxicology and applied Pharmacology, 136, 146-154, 1996]. Acetaminophen is rapidly metabolized by CYP2E1 to cause hepatic toxicity, which results in structural and functional change in liver cellular membrane, causing necrosis in hepatic lobule, an increase in blood ALT and LDH (lactate dehydrogenase) levels.
as §4
Effect of inhibiting hepatic disorder induced by acetaminophen (APAP)
(§6) The liver protective effect of the compound according to the present invention was examined according to the known method [see, Wang et al., Toxicology and applied Pharmacology, 136, 146-154, 1996] as specifically described below.
(§7) The compound according to the present invention was suspended in corn oil and the resulting suspension was administered in an amount of 1.0 ml/kg. Each group was composed of 3 to 10 male ICR mice (5-6 weeks) and the test compound was orally administered for 3 days in the dose of 50 mg/kg per day. After 2 hours from the last administration of the test compound, acetaminophen was orally administered in an amount of 0.5 g/kg. In this experiment, silymarin was used as the comparative compound. After 22 hours from the administration of acetaminphen, blood was taken from the individual test animal and ALT and LDH values in serum were determined. The results as obtained are described in the following Tables 4 and 5 (in which ALT and LDH values are represented by mean±SE). In addition, liver was removed from the test animals and then observed according to the same manner as Experiment 3 to evaluate the degree of hepatocyte necrosis.

hepatocyte necrosis [4] = test: Effect of inhibiting hepatic disorder induced by acetaminophen (APAP): hepatocyte necrosis; type: in vivo, male ICR mice; conditions: APAP model, 50 mg/kg per day oral, 3 days
Procedure: as §4, §5, §6, §7

Compound: C=CCSc1ccc(OC)nn1 [Example 4, 3-methoxy-6-allylthiopyridazine]
- LD50 at 336 h [1]: 3950 mg/kg
- D/T (number of died animals / number of test animals) (ICR male mouse; 1000 mg/kg): 0/6
- D/T (number of died animals / number of test animals) (ICR male mouse; 2000 mg/kg): 0/6
- D/T (number of died animals / number of test animals) (ICR male mouse; 3000 mg/kg): 1/6
- D/T (number of died animals / number of test animals) (ICR male mouse; 4000 mg/kg): 3/6
- D/T (number of died animals / number of test animals) (ICR male mouse; 5000 mg/kg): 4/6
- D/T (number of died animals / number of test animals) (ICR male mouse; 6000 mg/kg): 6/6
- Degree of necrosis 0: number of animals (hepatocyte necrosis [2]; grade 0 no lesion): 0
- Degree of necrosis 1: number of animals (hepatocyte necrosis [2]; grade 1 mild lesion): 1
- Degree of necrosis 2: number of animals (hepatocyte necrosis [2]; grade 2 moderate lesion): 5
- Degree of necrosis 3: number of animals (hepatocyte necrosis [2]; grade 3 severe lesion): 2
- Degree of necrosis 4: number of animals (hepatocyte necrosis [2]; grade 4 diffused lesion): 2
- Inhibiting rate (serum ALT) [3]: 97%
- Serum ALT value ([3]; mean±SE): 186 ± 118 KA unit/l
- Degree of necrosis 0: number of animals (hepatocyte necrosis [4]; grade 0 no lesion): 5
- Degree of necrosis 1: number of animals (hepatocyte necrosis [4]; grade 1 mild lesion): 4
- Degree of necrosis 2: number of animals (hepatocyte necrosis [4]; grade 2 moderate lesion): 1
- Degree of necrosis 3: number of animals (hepatocyte necrosis [4]; grade 3 severe lesion): 0
- Degree of necrosis 4: number of animals (hepatocyte necrosis [4]; grade 4 diffused lesion): 0

From US5942511A, “Allylthiopyridazine derivatives and process for preparing the same” (Kwon; Soon Kyoung, priority 1998, dated 1999)
